Earlier results in publication PMC8915598.

Test: not told

Structure (SMILES) | log partition octanol / water
NC(=O)c1ccc(N)cc1 | -0.41 log10
CC(=O)Nc1ccc(Cl)cc1 | 2.12 log10
